The values below come from PubChem BioAssay (NCI).

Each structure is given as a SMILES string.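 All cell lines were grown in 96-well plates and treated with compound for 48 hours. Abbreviation: GI50, concentration required for 50% inhibition of growth. At the TGI there is no net growth.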 A value given as a limit tells only on which side of the number the result lay.

Experiment in all cases: NCI-60 cell line screen, 48 h
Test [1] has as its system KM20L2 colon.
The test system of test [2] is IGROV1 ovarian.
For test [3], the system named is 786-0 renal.
Test [4] deals with SNB-75 CNS.
Test [5] has as its system SF-295 CNS.
The test system of test [6] is DMS 273 small cell lung.
The subject of test [7] is HOP-62 NSCLC.
For test [8], the system named is UO-31 renal.
For test [9], the system named is M14 melanoma.
Test [10] deals with RXF 393 renal.

As for `CN(C)c1nnnn1-c1c(N)n(C)c(=O)n(C)c1=O`, the TGI in test [1], in test [2], in test [3], in test [4], in test [5] and in [6] was above 100 µM in each case. Moreover, the TGI in [7] and in test [8] was above 100 µM each time.

As to `CCCCCCCCCCCCCCCCNCCCN(C)CCCN`, the TGI in test [1] stood at 32.7 µM; in test [2], 43.1 µM; in test [3] it was 28.9 µM; in test [4] it was 34.2 µM; in [9], 30.8 µM; in test [5] it was 33.4 µM. Moreover, the TGI is 34.8 µM in test [6] and 31.6 µM in [8].

As to `CCOc1ccc2c(c1)[n+]([O-])c(-c1ccc(Br)cc1)c(N)[n+]2[O-]`, the TGI in test [1], in [2], in test [3], in [4], in test [9] and in test [5] was above 100 µM in each case. Besides, the TGI in [6], in [7] and in test [8] was above 100 µM each time.

For the compound `Cc1ccc(NC(=O)C2C(=O)N(c3ccc(C)c(C)c3)C(=O)/C2=N\NC(N)=O)cc1C` (configuration not stated), the TGI in test [1], in test [2], in [3], in test [4], in [10] and in test [9] was above 100 µM throughout. The TGI in [5], in test [7] and in test [8] was above 100 µM in each case.

As for `Cc1noc2c1C(=O)CCC2`, the TGI in [1], in [3], in test [4], in [10], in [9] and in test [8] was above 100 µM throughout.

On to `CCCCC(C)C(OC(=O)CC(CC(=O)O)C(=O)O)C(CC(C)CC(O)CCCCC(O)CC(O)C(C)N)OC(=O)CC(CC(=O)O)C(=O)O` (configuration not stated), for which the TGI in [1], in test [2], in test [3], in [4], in test [10] and in test [9] was above 100 µM in each case. Further, the TGI in [5], in [7] and in test [8] was above 100 µM throughout.

With `COc1cccc(-c2ccc3c(c2)C2CCN(Cc4ccccc4)C3C2)c1` (configuration not stated), the GI50 was 8.99 µM in test [2]; 13.9 µM in test [3]; 6.69 µM in test [4]; 10100 nM in [10]; 5.78 µM in test [9]; 4.08 µM in [5]. Besides, the values for the GI50 in test [7] and in [8] were 12.1 µM and 6.79 µM, respectively. Besides, the TGI in [2] was 76.6 µM; in test [3], 36.1 µM; in test [4], 27.2 µM; in [10], 24.6 µM; in [9], 24.8 µM; in test [5], 20.9 µM. The TGI in [7] came to 35.6 µM; in test [8], 21.6 µM.

In the case of `Clc1ccc(-c2nnc(-c3cccc4ccccc34)o2)cc1Cl`, the TGI in test [2] was 53.9 µM; in [3], above 100 µM; in [4] it was above 100 µM; in test [10], above 100 µM; in test [9], above 100 µM; in test [5], above 100 µM. Besides, the TGI in test [7] and in test [8] was above 100 µM each time.

Take `O=C(O)C1CCCCC1c1c2ccc(=O)c(O)c-2oc2c(O)c(O)ccc12` (configuration not stated): the TGI in test [2] is above 100 µM; in test [3], 46.2 µM; in test [4] it was above 100 µM; in [10] it was above 100 µM; in test [9] it was above 100 µM; in test [5], 56.4 µM. Also, the TGI was 94.4 µM in test [7] and above 100 µM in test [8].

In the case of `O=[N+]([O-])c1ccc(-c2noc(-c3ccc(Cl)cc3)c2C2=NCCN2)cc1`, the TGI in [1], in [2], in test [3], in [10], in [9] and in test [5] was above 100 µM each time. Moreover, the TGI in test [7] and in test [8] was above 100 µM in each case.

Regarding `Brc1ccc2[nH]cc(-c3nc(-c4c[nH]c5ncccc45)cs3)c2c1`, the GI50 in test [2] is 3.17 µM; in test [3] it was 1.88 µM; in [4] it was 2.08 µM; in test [10] it was 1640 nM; in test [9] it was 2.7 µM; in test [5], 2.74 µM. Also, the GI50 in test [7] was 3.76 µM; in test [8], 1.16 µM. Moreover, the TGI in [2] is 23 µM; in [3], 4.49 µM; in [4], 13.4 µM; in [10] it was 8.56 µM; in [9] it was 8.6 µM; in test [5], 7.31 µM. Also, the TGI in test [7] was 17 µM; in [8] it was 13.1 µM.

Regarding `COc1cccc(-c2nn(-c3ccccc3)cc2-c2ccnc(NCCNC(=O)Nc3cccc(C(F)(F)F)c3)c2)c1`, the GI50 in [2] is 2.88 µM; in [3], 1.93 µM; in test [4], 1.62 µM; in test [10] it was 1530 nM; in test [9], 2.79 µM; in [5], 1.66 µM. Further, the values for the GI50 in test [7] and in [8] were 2.52 µM and 1.6 µM, respectively. For the same compound, the TGI in [2] was determined as 9.34 µM; in test [3], 4.39 µM; in [4], 12.5 µM; in test [10] it was 3.03 µM; in test [9], 10.6 µM; in [5], 3.28 µM. The TGI in [7] came out at 5.63 µM; in test [8] it was 4.15 µM.

As for `Nc1nc(N)c(C=Nc2ccc(Br)cc2)c(Nc2ccc(Br)cc2)n1`, the GI50 in test [2] was 8.72 µM; in test [3] it was 11.1 µM; in test [4], 5.02 µM; in test [10] it was 2890 nM; in [9] it was 9.59 µM; in test [5], 11.3 µM. Also, the GI50 in test [7] was 10.5 µM; in test [8] it was 6.55 µM. Further, the TGI in test [2] came out at 46.2 µM; in test [3] it was 23 µM; in [4], 18.6 µM; in test [10], 13.6 µM; in test [9], 21.4 µM; in test [5] it was 38.5 µM. In addition, the figures for the TGI in [7] and in [8] were 22.5 µM and 28.1 µM, respectively.
